PubChem BioAssay AID1963834 (Molecular Pharmacology Branch, DTP, NCI, 2024)

Tested on: 873145-292-R-J1-PDC complex spheroid viability
Experiment: Anticancer human tumor 873145-292-R-J1-PDC patient-derived renal clear cell carcinoma cell line growth inhibition [POLQ]
Conditions: for IC50: curve of first compound; for viability, T/C: stronger effect = lower value
In short: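 Patient-derived tumour cells were co-cultured with HUVEC and mesenchymal stem cells as multicellular spheroids at 37 °C. They were treated with POLQ inhibitors (novobiocin, ART-558, RP6685) alone or combined with other agents. Top concentrations were at or near clinical Cmax (otherwise 10 microM; SN-38 at 1 microM), decreasing in half-log steps.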
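Also: spheroids exposed to compounds for 7 days before viability readout.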
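For viability, T/C in this document: luminescence signal used as surrogate for viable cell content; 100% = DMSO vehicle control viability.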

CC1COCCN1c1cc(C2(O)CC3CCC(C2)O3)c2cnn(-c3ccn[nH]3)c2n1 (centres undefined) + Cc1cccc(N(C)C(=O)C2C(O)CCN2c2nc(C)cc(C(F)(F)F)c2C#N)c1
IC50 (second compound 0.0316 µM): 0.478 µM | IC50 (second compound 0.1 µM): 0.61 µM | IC50 (second compound 0.316 µM): 0.405 µM | IC50 (second compound 1 µM): 0.511 µM | IC50 (second compound 3.16 µM): 0.378 µM | IC50 (second compound 10 µM): 0.306 µM | viability, T/C (second compound 0.0316 µM, first compound 0.0316 µM): 84.4% | viability, T/C (second compound 0.0316 µM, first compound 0.1 µM): 67.5% | viability, T/C (second compound 0.0316 µM, first compound 0.316 µM): 54% | viability, T/C (second compound 0.0316 µM, first compound 1 µM): 44.3% | viability, T/C (second compound 0.0316 µM, first compound 3.16 µM): 37.2% | viability, T/C (second compound 0.0316 µM, first compound 10 µM): 38% | viability, T/C (second compound 0.1 µM, first compound 0.0316 µM): 93.5% | viability, T/C (second compound 0.1 µM, first compound 0.1 µM): 76.4% | viability, T/C (second compound 0.1 µM, first compound 0.316 µM): 57.1% | viability, T/C (second compound 0.1 µM, first compound 1 µM): 43.2% | viability, T/C (second compound 0.1 µM, first compound 3.16 µM): 39.5% | viability, T/C (second compound 0.1 µM, first compound 10 µM): 32% | viability, T/C (second compound 0.316 µM, first compound 0.0316 µM): 94.5% | viability, T/C (second compound 0.316 µM, first compound 0.1 µM): 82.5% | viability, T/C (second compound 0.316 µM, first compound 0.316 µM): 52.5% | viability, T/C (second compound 0.316 µM, first compound 1 µM): 40.4% | viability, T/C (second compound 0.316 µM, first compound 3.16 µM): 40.3% | viability, T/C (second compound 0.316 µM, first compound 10 µM): 35.9% | viability, T/C (second compound 1 µM, first compound 0.0316 µM): 84.8% | viability, T/C (second compound 1 µM, first compound 0.1 µM): 71.6% | viability, T/C (second compound 1 µM, first compound 0.316 µM): 54% | viability, T/C (second compound 1 µM, first compound 1 µM): 44.1% | viability, T/C (second compound 1 µM, first compound 3.16 µM): 42.1% | viability, T/C (second compound 1 µM, first compound 10 µM): 39.8% | viability, T/C (second compound 3.16 µM, first compound 0.0316 µM): 90.1% | viability, T/C (second compound 3.16 µM, first compound 0.1 µM): 63.1% | viability, T/C (second compound 3.16 µM, first compound 0.316 µM): 55.6% | viability, T/C (second compound 3.16 µM, first compound 1 µM): 41.3% | viability, T/C (second compound 3.16 µM, first compound 3.16 µM): 36.6% | viability, T/C (second compound 3.16 µM, first compound 10 µM): 35.6% | viability, T/C (second compound 10 µM, first compound 0.0316 µM): 86.2% | viability, T/C (second compound 10 µM, first compound 0.1 µM): 68.8% | viability, T/C (second compound 10 µM, first compound 0.316 µM): 49% | viability, T/C (second compound 10 µM, first compound 1 µM): 38.4% | viability, T/C (second compound 10 µM, first compound 3.16 µM): 39.5% | viability, T/C (second compound 10 µM, first compound 10 µM): 32%

CC(=O)O[C@H]1C(=O)[C@@]2(C)[C@H]([C@H](OC(=O)c3ccccc3)[C@]3(O)C[C@H](OC(=O)[C@H](O)[C@@H](NC(=O)c4ccccc4)c4ccccc4)C(C)=C1C3(C)C)[C@]1(OC(C)=O)CO[C@@H]1C[C@@H]2O + Nc1ccc(C#CCN(C(=O)Cc2ncc(C(F)(F)F)cc2C(F)(F)F)c2ccc(F)cc2)nn1
IC50 (second compound 0.0316 µM): > 3 µM | IC50 (second compound 0.1 µM): > 3 µM | IC50 (second compound 0.316 µM): > 3 µM | IC50 (second compound 1 µM): > 3 µM | IC50 (second compound 3.16 µM): > 3 µM | IC50 (second compound 10 µM): > 3 µM | viability, T/C (second compound 0.0316 µM, first compound 0.00949 µM): 89.1% | viability, T/C (second compound 0.0316 µM, first compound 0.03 µM): 85.9% | viability, T/C (second compound 0.0316 µM, first compound 0.0949 µM): 79.5% | viability, T/C (second compound 0.0316 µM, first compound 0.3 µM): 72.9% | viability, T/C (second compound 0.0316 µM, first compound 0.949 µM): 67.6% | viability, T/C (second compound 0.0316 µM, first compound 3 µM): 71.2% | viability, T/C (second compound 0.1 µM, first compound 0.00949 µM): 85.4% | viability, T/C (second compound 0.1 µM, first compound 0.03 µM): 90.2% | viability, T/C (second compound 0.1 µM, first compound 0.0949 µM): 71.8% | viability, T/C (second compound 0.1 µM, first compound 0.3 µM): 68.3% | viability, T/C (second compound 0.1 µM, first compound 0.949 µM): 68.8% | viability, T/C (second compound 0.1 µM, first compound 3 µM): 65% | viability, T/C (second compound 0.316 µM, first compound 0.00949 µM): 90.3% | viability, T/C (second compound 0.316 µM, first compound 0.03 µM): 84.6% | viability, T/C (second compound 0.316 µM, first compound 0.0949 µM): 68.1% | viability, T/C (second compound 0.316 µM, first compound 0.3 µM): 68.8% | viability, T/C (second compound 0.316 µM, first compound 0.949 µM): 66.9% | viability, T/C (second compound 0.316 µM, first compound 3 µM): 62.8% | viability, T/C (second compound 1 µM, first compound 0.00949 µM): 85.2% | viability, T/C (second compound 1 µM, first compound 0.03 µM): 71.5% | viability, T/C (second compound 1 µM, first compound 0.0949 µM): 72.7% | viability, T/C (second compound 1 µM, first compound 0.3 µM): 70.7% | viability, T/C (second compound 1 µM, first compound 0.949 µM): 70.7% | viability, T/C (second compound 1 µM, first compound 3 µM): 68.7% | viability, T/C (second compound 3.16 µM, first compound 0.00949 µM): 87% | viability, T/C (second compound 3.16 µM, first compound 0.03 µM): 73.7% | viability, T/C (second compound 3.16 µM, first compound 0.0949 µM): 72.3% | viability, T/C (second compound 3.16 µM, first compound 0.3 µM): 72.3% | viability, T/C (second compound 3.16 µM, first compound 0.949 µM): 71.8% | viability, T/C (second compound 3.16 µM, first compound 3 µM): 69% | viability, T/C (second compound 10 µM, first compound 0.00949 µM): 81.1% | viability, T/C (second compound 10 µM, first compound 0.03 µM): 75.5% | viability, T/C (second compound 10 µM, first compound 0.0949 µM): 74.8% | viability, T/C (second compound 10 µM, first compound 0.3 µM): 67.1% | viability, T/C (second compound 10 µM, first compound 0.949 µM): 65.7% | viability, T/C (second compound 10 µM, first compound 3 µM): 74%
